Reference: the NIST ThermoML archive (doi:10.1021/acs.jced.8b01120)
Several values for one entry are separate records, joined by “and”; a condition that tells them apart may be missing. Equal values may be shown once. Numbers after ± are expanded uncertainties.

Assays:
[1] = xn = mol fraction of the nth substance listed; settings: 100 kPa, Liquid; for speed of sound: Single path-length method; for mass density: Vibrating tube method
[2] = 100 kPa, Liquid; for speed of sound: Single path-length method; for mass density: Vibrating tube method

CCCCOC(C)=O [butyl ethanoate] + CCCCN(CCCC)CCCC
[1], x2 = 0
Settings | mass density [kg/m3] | speed of sound [m/s]
293.15 K | 881.54 ± 2 | 1211.6 ± 4
298.15 K | 876.399 ± 2 | 1191.5 ± 4
303.15 K | 871.235 ± 2 | 1172.4 ± 4
308.15 K | 866.05 ± 2 | 1153.9 ± 4
313.15 K | 860.84 ± 2 | 1131.5 ± 4

CCCCN(CCCC)CCCC [tributylamine]
[2]
Settings | mass density | speed of sound [m/s]
293.15 K | 777.01 ± 2 kg/m3 and 777.006 ± 2 kg/m3 | 1264.2 ± 4
298.15 K | 773.283 ± 2 kg/m3 and 773.28 ± 2 kg/m3 | 1245.2 ± 4
303.15 K | 769.55 ± 2 kg/m3 and 769.552 ± 2 kg/m3 | 1226.2 ± 4
308.15 K | 765.81 ± 2 kg/m3 and 765.811 ± 2 kg/m3 | 1207.4 ± 4
313.15 K | 762.06 ± 2 kg/m3 and 762.061 ± 2 kg/m3 | 1188.8 ± 4

COC(C)=O [methyl ethanoate]
[2]
Settings | mass density [kg/m3] | speed of sound [m/s]
293.15 K | 935.01 ± 2 | 1180.4 ± 4
298.15 K | 928.458 ± 2 | 1157.5 ± 4
303.15 K | 921.85 ± 2 | 1134.9 ± 4
308.15 K | 915.16 ± 2 | 1109.2 ± 4
313.15 K | 908.49 ± 2 | 1089.6 ± 4

CCCCCOC(C)=O [pentyl ethanoate]
[2]
Settings | mass density [kg/m3] | speed of sound [m/s]
293.15 K | 876.248 ± 2 | 1243 ± 4.1
298.15 K | 871.32 ± 2 | 1220.7 ± 4.1
303.15 K | 865.782 ± 2 | 1196.8 ± 4.1
308.15 K | 860.581 ± 2 | 1174.2 ± 4.1
313.15 K | 855.357 ± 2 | 1152.3 ± 4.1

CCOC(C)=O [ethyl acetate] + CCCCN(CCCC)CCCC
[1], x2 = 0
Settings | mass density [kg/m3] | speed of sound [m/s]
293.15 K | 900.882 ± 2 | 1164.3 ± 4
298.15 K | 894.79 ± 2 | 1142.9 ± 4
303.15 K | 888.656 ± 2 | 1119.4 ± 4
308.15 K | 882.475 ± 2 | 1097.2 ± 4
313.15 K | 876.247 ± 2 | 1075 ± 4

COC(C)=O [methyl ethanoate] + CCCCN(CCCC)CCCC
[1], x2 = 0
Settings | mass density [kg/m3] | speed of sound [m/s]
293.15 K | 935.01 ± 2 | 1180.4 ± 4
298.15 K | 928.458 ± 2 | 1157.5 ± 4
303.15 K | 921.85 ± 2 | 1134.9 ± 4
308.15 K | 915.16 ± 2 | 1109.2 ± 4
313.15 K | 908.49 ± 2 | 1089.6 ± 4

CCOC(C)=O [ethyl acetate]
[2]
Settings | mass density [kg/m3] | speed of sound [m/s]
293.15 K | 900.882 ± 2 | 1164.3 ± 4
298.15 K | 894.79 ± 2 | 1142.9 ± 4
303.15 K | 888.656 ± 2 | 1119.4 ± 4
308.15 K | 882.475 ± 2 | 1097.2 ± 4
313.15 K | 876.247 ± 2 | 1075 ± 4

CCCOC(C)=O [propyl ethanoate]
[2]
Settings | mass density [kg/m3] | speed of sound [m/s]
293.15 K | 888.964 ± 2.1 | 1190.3 ± 4.5
298.15 K | 883.369 ± 2.1 | 1164.2 ± 4.5
303.15 K | 877.422 ± 2.1 | 1145 ± 4.5
308.15 K | 871.784 ± 2.1 | 1123.7 ± 4.5
313.15 K | 866.115 ± 2.1 | 1102.3 ± 4.5

CCCOC(C)=O [propyl ethanoate] + CCCCN(CCCC)CCCC
[1], x2 = 0
Settings | mass density [kg/m3] | speed of sound [m/s]
293.15 K | 888.964 ± 2.1 | 1190.3 ± 4.5
298.15 K | 883.369 ± 2.1 | 1164.2 ± 4.5
303.15 K | 877.422 ± 2.1 | 1145 ± 4.5
308.15 K | 871.784 ± 2.1 | 1123.7 ± 4.5
313.15 K | 866.115 ± 2.1 | 1102.3 ± 4.5

CCCCN(CCCC)CCCC [tributylamine] + CCCCCOC(C)=O
[1], x1 = 1
Settings | mass density [kg/m3] | speed of sound [m/s]
293.15 K | 777.006 ± 2 | 1264.2 ± 4
298.15 K | 773.283 ± 2 | 1245.2 ± 4
303.15 K | 769.552 ± 2 | 1226.2 ± 4
308.15 K | 765.811 ± 2 | 1207.4 ± 4
313.15 K | 762.061 ± 2 | 1188.8 ± 4

CCCCOC(C)=O [butyl ethanoate]
[2]
Settings | mass density [kg/m3] | speed of sound [m/s]
293.15 K | 881.54 ± 2 | 1211.6 ± 4
298.15 K | 876.399 ± 2 | 1191.5 ± 4
303.15 K | 871.235 ± 2 | 1172.4 ± 4
308.15 K | 866.05 ± 2 | 1153.9 ± 4
313.15 K | 860.84 ± 2 | 1131.5 ± 4
